Values quoted from earlier work in patent US5001113A, “Di- or tripeptide renin inhibitors containing lactam conformational restriction in ACHPA” (Merck & Co., Inc., priority 1990, dated 1991).
Where a SMILES comes first, the peptide text is derived from it. [ ]: non-standard residue; d: D form. The star is where a group is joined. Sta = CC(C)C[C@H](N)[C@@H](O)CC(=O)O; Isovaleryl = CC(C)CC(=O)*

Test system: hog renin
Details: after the injection of hog renin into nephrectomized rats

SMILES: CC(C)CC(=O)N[C@H](C(=O)N[C@H](C(=O)N[C@@H](CC(C)C)[C@@H](O)CC(=O)N[C@@H](C)C(=O)N[C@@H](CC(C)C)[C@@H](O)CC(=O)O)C(C)C)C(C)C [pepstatin] (Isovaleryl-VV[Sta]A[Sta]-OH)
- blood pressure in vivo: reduces blood pressure
